Laboratory results taken from patent US20080071190A1, “Timing of Ovulation Based on Vaginal Ph” (priority 2004, published 2008).
Marks after values point to notes of the source that are not given here.

Key:
[1] = system: hECE cells; assay: Cell-vitality staining (MTT assay); type: cell-based, human; conditions: for hECE cell vitality (MTT staining normalized to OD570 of control unperturbed cells), Baseline / hECE cell vitality (MTT staining normalized to OD570 of control unperturbed cells), 30 min pHo: means ±SD; for hECE cell vitality (MTT staining normalized to OD570 of control unperturbed cells), 30 min pHo: after 30 min pHo measurement
Description: Cell-vitality staining was done using the 3-[4,5-dimethylthiazol-2-yl]-2,5-diphenyl tetrazolium bromide (MTT) assay. MTT serves as a substrate for mitochondrial dehydrogenases, and only viable functional mitochondria are capable of cleaving MTT to generate the colored product formazan. MTT solution was prepared by dissolving MTT at a concentration of 5 mg/ml in phosphate-buffered saline (PBS) composed of (mM) NaCl (137), KCl (2.68), Na2HPO4 (10), KH2PO4 (1.76), pH 7.4, and filtering the solution through Millipore filter. Following treatments/assays, cells on filters were washed with fresh and warm (37° C.) PBS and incubated for 60 min at 37° C. in MTT solution. At the completion of incubation, cells were washed with PBS, and solubilized in isopropanol containing 0.1 M HCl plus 1% Triton X-100. Lysates were mixed by pipetting to dissolve the reduced MTT crystals (during which time the colorless solution turned purple) and were spinned at 10,000 g for 5 min. The solubilized formazan was measured by determining absorption at 570 nm. Background absorbance at 690 nm was subtracted for each sample, and values were normalized to OD570 (optic density) of control unperturbed cells.

[2] = system: hECE cells (Human Ectocervical-Vaginal Epithelial Cells); assay: Determinations of extracellular pH (pHo) in luminal and contra-luminal solutions of hECE cells cultured on filters; type: cell-based; conditions: for effect of co-treatment on estrogen-induced decrease in luminal pHo: hECE cells in steroid-free medium + 10 nM 17β-estradiol; for effect of co-treatment on estrogen-induced decrease in luminal pHo / effect on contra-luminal pHo: tamoxifen 10 μM; for effect of co-treatment on estrogen-induced decrease in luminal pHo / effect on luminal pHo, alone / effect on contra-luminal pHo: ICI-182780 10 μM; for effect of co-treatment on estrogen-induced decrease in luminal pHo / effect on luminal pHo, alone: progesterone 1 μM; for effect on luminal pHo, alone: without 17β-estradiol; for effect on contra-luminal pHo: progesterone 1 μM (not shown); for effect on estrogen-induced acidification of the luminal pHo: 10 nM 17β-estradiol, 30 min pre-treatment, bafilomycin A1 1 μM, ouabain 1 μM (contra-luminal), omeprazol 100 μM, FIG. 10; for effect on luminal pHo (specificity of estrogen effect): hormone at 10 nM, FIG. 8A
Description: Referring to FIG. 4A, hECE cells or Human Endocervical Cells were plated on Anocell filters (Anocel™-10, Oxon, UK, obtained through Sigma Chemicals, St. Louis, Mo.), which are ceramic-base filters, pore size of 0.02 μm width, 50 μm depth, and surface area of 0.6 cm^2. Filters 300 and 302 were coated with 4 μg/cm^2 collagen type IV and incubated at 37° C. overnight. The remaining collagen solution was aspirated and the filter was dried at 37° C. Before plating, filters 300 were rinsed 3 times with Hanks' Balanced Salt Solution. Cells were plated either on the upper surface 302 of one filter 300 (for determinations of luminal pHo) or on the bottom surface 304 of the other filter 300 (for determinations of the contra-luminal pHo) at 3·10^5 cells/cm^2. By plating at this relatively high density the cultures became confluent within 12 hours after plating.
Plates containing the filters were placed in a tissue culture incubator (37° C.), and pHo changes in the luminal and contra-luminal solutions were determined using AMANI-1000 microcombination pH electrodes 306 (Harvard Apparatus, Holliston, Mass., obtained through Genomics Solutions, Ann Harbor, Mich.). The AMANI-1000 pH sensor (stored in pH 7.0) is based on metal-metal oxide pH measurements and the pH sensitive layer is immobilized on plastic. The reference electrode employs an Ag/AgCl in 3.4 M KCl reference electrode, and the reference electrode junction is leak-free ensuring no leaks of KCl out of the reference electrode. The design of the pH electrodes 306 enabled their use for the purpose of the present experiments: tip diameter of 1 mm, depth of immersion 1 mm, and response time of less than 5 sec.
Electrodes 306 attached to a stand were held stable with the tip immersed in the solution within the upper compartment of the filter to a depth of about 2 mm avoiding direct contact between the electrode tip and the cultured cells. The electrodes were connected directly to a pH meter 310 (e.g., Accumet pH meter 910) (Fisher Scientific, Suwanee Ga.). After stabilization, the luminal and contraluminal solutions were gently aspirated using glass pipette, and replaced with fresh warmed (37° C.) Basic Salt Solution containing (in mM) NaCl (140), KCl (5), MgCl2 (1), CaCl2 (1), glucose (10), and 0.1% bovine serum albumin, pH 7.4. The volumes in the luminal and contraluminal compartments were 150 μl and 500 μl, respectively. Determinations of changes in pHo were made at time 0, and at 5 min intervals thereafter for up to 30 min.
To remove intracellular estrogens cells were grown in steroid-free medium as described. This procedure involved shifting cells on filters for three days prior to pHo assays to a medium composed of phenol-red-deficient (DMEM)/Ham's F12 or (Sigma Chemicals, St. Louis, Mo.) containing 8% heat inactivated fetal bovine serum that was previously treated with charcoal to remove steroids. Preparation of charcoal-treated serum was described; briefly, dextran-coated charcoal (Sigma Chemicals, St. Louis, Mo.) was dissolved at 8% in 0.15 M NaCl, autoclaved, mixed by stirring, spun and the pellet was resuspended as 1 gm/1.25 ml in H2O. Fetal bovine serum (Hyclone, Logan, Utah) was mixed with the activated charcoal-dextran at 20:1 (Vol:Vol) and incubated for 45 min at 55° C. At the completion of incubation the mixture was spun twice at 800 g for 20 min and the supernatant (serum) was decanted and collected. For experiments, cells were shifted to steroid-free medium for 3 days; alternatively, cells were shifted to the steroid-free medium for 24 hrs and treated with 17β-estradiol for two additional days.

[3] = Steroid-Free Medium + 10 nM 17β-Estradiol + substance at the concentration given
[4] = Steroid-Free Medium + substance, 3 to 4 repeats
[5] = hECE cells in steroid-free medium
[6] = hECE cells, steroid-free medium + estradiol, 1 μM for 30 min added to the luminal solution

Structure (SMILES)	hECE cell vitality (MTT staining normalized to OD570 of control unperturbed cells), Baseline [1, 3]	hECE cell vitality (MTT staining normalized to OD570 of control unperturbed cells), 30 min pHo [1, 3]	hECE cell vitality (MTT staining normalized to OD570 of control unperturbed cells), Baseline [1, 4]	hECE cell vitality (MTT staining normalized to OD570 of control unperturbed cells), 30 min pHo [1, 4]	effect of co-treatment on estrogen-induced decrease in luminal pHo [2]	effect on contra-luminal pHo ([2]; hECE cells)	effect on estrogen-induced acidification of the luminal pHo ([2]; hECE cells)	further results
[Cl][Cd][Cl] [CdCl2]	95 ± 2%	95 ± 3%	94 ± 2%	95 ± 9%				
O=C(O)CN(CCOCCOCCN(CC(=O)O)CC(=O)O)CC(=O)O [EGTA]								effect on contra-luminal solution ([2]; hECE cells, 1.2 mM EGTA plus 1.2 mM CdCl2 in luminal and contra-luminal solutions): acidification of the contra-luminal solution; effect on luminal acidification ([2]; hECE cells, 1.2 mM EGTA plus 1.2 mM CdCl2 in luminal and contra-luminal solutions (extracellular calcium <0.1 mM)): blocked the luminal acidification; luminal pHo and contra-luminal pHo ([2]; hECE cells, following treatment with 1.2 mM EGTA (plus 1.2 mM CdCl2)): ~7.2
C[C@]12CC[C@@H]3c4ccc(O)cc4C[C@@H](CCCCCCCCC[S+]([O-])CCCC(F)(F)C(F)(F)F)[C@H]3[C@@H]1CC[C@@H]2O (some centres unmarked) [ICI-182780]	89 ± 9%	93 ± 6%	95 ± 8%	95 ± 3%	blocked	Neither tamoxifen ICI-182780 or progesterone had any appreciable effect		effect on luminal pHo, alone [2, 5]: no effect
CO/C1=C\C(C)=C\[C@@H](C)[C@@H](O)[C@@H](C)C/C(C)=C/C=C/[C@H](OC)[C@@H]([C@@H](C)[C@@H](O)[C@H](C)[C@@]2(O)C[C@@H](O)[C@H](C)[C@@H](C(C)C)O2)OC1=O [bafilomycin A1]	93 ± 7%	92 ± 5%	94 ± 3%	95 ± 4%			blocked	effect on the contra-luminal or luminal pHo ([2]; hECE cells, steroid-free medium + estradiol, 1 μM for 30 min added to the contra-luminal solution): no effect; effect on luminal pHo [2, 6]: significantly blocked the estrogen-decrease in luminal pHo; effect on the contra-luminal pHo [2, 6]: little effect
CC/C(=C(/CC)c1ccc(O)cc1)c1ccc(O)cc1 [diethylstilbestrol]								effect on luminal pHo (specificity of estrogen effect) [2, 5]: could mimic 17β-estradiol decrease in luminal pHo
COc1ccc2[nH]c([S+]([O-])Cc3ncc(C)c(OC)c3C)nc2c1 (centres unmarked) [omeprazol]	91 ± 6%	95 ± 4%	92 ± 5%	95 ± 4%			no effect	
C[C@@H]1O[C@@H](O[C@H]2C[C@@H](O)[C@]3(CO)[C@H]4[C@H](O)C[C@]5(C)[C@@H](C6=CC(=O)OC6)CC[C@]5(O)[C@@H]4CC[C@]3(O)C2)[C@H](O)[C@H](O)[C@H]1O [ouabain]	62 ± 4^a,b %	74 ± 9^b %	71 ± 8^a,b %	69 ± 9^b %			attenuated mildly estradiol effect	effect on MTT cleavage (cell viability) ([1]; hECE cells, treatments of Table 1): decreased MTT incorporation and staining; effect on luminal pHo in cells grown in steroid-free medium ([2]; hECE cells, no estradiol, ouabain 1 μM, 30 min, added to contra-luminal solution): mild alkalinization of luminal pHo
CC(=O)[C@H]1CC[C@H]2[C@@H]3CCC4=CC(=O)CC[C@]4(C)[C@H]3CC[C@]12C [progesterone]	91 ± 6%	95 ± 4%	95 ± 5%	95 ± 4%	no significant effect	Neither tamoxifen ICI-182780 or progesterone had any appreciable effect		effect on luminal pHo, alone [2, 5]: no effect
CC/C(=C(\c1ccccc1)c1ccc(OCCN(C)C)cc1)c1ccccc1 [tamoxifen]	95 ± 3%	96 ± 4%	93 ± 4%	95 ± 4%	no significant effect	Neither tamoxifen ICI-182780 or progesterone had any appreciable effect		luminal pHo ([2]; hECE cells in steroid-free medium, tamoxifen 10 μM alone, 24 hrs, decreased from 7.24±0.02, p<0.01): 7.15±0.02
C[C@]12CC[C@H]3[C@@H](CCC4=CC(=O)CC[C@@]43C)[C@@H]1CC[C@@H]2O [testosterone]								effect on luminal pHo (specificity of estrogen effect) [2, 5]: no effect
